The test deals with His-GST-PARP7 (Homo sapiens (Human), UniProt Q7Z3E1). The test can be described thus: PARP7 biochemical assay.

We go through 28 compounds from patent US20260055079A1, “PHTHALAZINONE COMPOUNDS AS PARP7 INHIBITORS” (AZKARRA THERAPEUTICS, INC., priority 2022, published 2026).

Like-named read-outs stand apart in the source and are kept apart here.

Chain of His-GST-PARP7 (Q7Z3E1 whole entry): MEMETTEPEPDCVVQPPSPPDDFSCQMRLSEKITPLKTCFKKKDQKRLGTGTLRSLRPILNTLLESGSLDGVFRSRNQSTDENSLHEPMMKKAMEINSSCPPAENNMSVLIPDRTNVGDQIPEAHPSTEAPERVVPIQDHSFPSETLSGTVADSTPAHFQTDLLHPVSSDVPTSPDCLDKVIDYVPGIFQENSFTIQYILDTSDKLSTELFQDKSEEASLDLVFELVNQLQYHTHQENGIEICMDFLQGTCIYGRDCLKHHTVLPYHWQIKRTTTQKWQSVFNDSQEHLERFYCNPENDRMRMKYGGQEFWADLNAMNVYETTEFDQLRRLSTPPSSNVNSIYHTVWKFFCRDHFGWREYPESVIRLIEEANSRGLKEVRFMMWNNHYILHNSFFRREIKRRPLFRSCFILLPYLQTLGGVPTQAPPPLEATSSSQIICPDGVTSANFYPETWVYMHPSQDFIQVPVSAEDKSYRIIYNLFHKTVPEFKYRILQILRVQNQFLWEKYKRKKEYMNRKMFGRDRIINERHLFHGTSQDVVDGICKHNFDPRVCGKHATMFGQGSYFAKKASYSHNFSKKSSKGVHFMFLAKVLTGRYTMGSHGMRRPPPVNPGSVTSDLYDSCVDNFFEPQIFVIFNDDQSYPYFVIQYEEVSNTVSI

For `O=C(c1cc(Cc2n[nH]c(=O)c3ccc(OC4CCC4)cc23)ccc1F)N1CCC2C1CCN2c1ncc(C(F)(F)F)cn1` (stereo not shown) [Example 103, 6-Cyclobutoxy-4-(4-fluoro-3-(4-(5-(trifluoromethyl)pyrimidin-2-yl)octahydropyrrolo[3,2-b]pyrrole-1-carbonyl)benzyl)phthalazin-1(2H)-one], where the note is “read-out: PARP7 IC50”, the half-inhibitory concentration (IC50) (in general, the midpoint of a concentration-inhibition curve) was 50 to 100 nM. Take `N#Cc1ccc(NC2CN(C(=O)c3cc(Cc4n[nH]c(=O)c5ccc(OC6CCC6)cc45)ccc3F)C2)nc1` [Example 104, 6-((1-(5-((7-Cyclobutoxy-4-oxo-3,4-dihydrophthalazin-1-yl)methyl)-2-fluorobenzoyl)azetidin-3-yl)amino)nicotinonitrile]: the half-inhibitory concentration (IC50) (read-out: PARP7 IC50) lay in the range of 50 to 100 nM. On the same count and under the same terms, under `N#Cc1ccnc(NC2CN(C(=O)c3cc(Cc4n[nH]c(=O)c5ccc(OC6CCC6)cc45)ccc3F)C2)c1` [Example 106, 2-(1-(5-((7-Cyclobutoxy-4-oxo-3,4-dihydrophthalazin-1-yl)methyl)-2-fluorobenzoyl)azetidin-3-ylamino)isonicotinonitrile] stands 100 to 500 nM.

In the case of `O=C(c1cc(Cc2n[nH]c(=O)c3ccc(OC4CCC4)cc23)ccc1F)N1C[C@H]2CC[C@@H](C1)N2C(=O)C1CC1` [Example 107, 6-Cyclobutoxy-4-(3-(8-(cyclopropanecarbonyl)-3,8-diazabicyclo[3.2.1]octane-3-carbonyl)-4-fluorobenzyl)phthalazin-1(2H)-one], the 50% inhibitory concentration (IC50) was in the range of 100 to 500 nM. Regarding `CNC(=O)c1ccnc(N(C)C2CN(C(=O)c3cc(Cc4n[nH]c(=O)c5ccc(OC6CCC6)cc45)ccc3F)C2)n1` [Example 108, 2-((1-(5-((7-cyclobutoxy-4-oxo-3,4-dihydrophthalazin-1-yl)methyl)-2-fluorobenzoyl)azetidin-3-yl)(methyl)amino)-N-methylpyrimidine-4-carboxamide], the IC50 (read-out: PARP7 IC50) lay within 100 to 500 nM. Take `O=C(c1cc(Cc2n[nH]c(=O)c3ccc(OC4CCC4)cc23)ccc1F)N1CCC2C1CCN2C(=O)C1CC1` (stereo not shown) [Example 109, 6-cyclobutoxy-4-(3-(4-(cyclopropanecarbonyl)octahydropyrrolo[3,2-b]pyrrole-1-carbonyl)-4-fluorobenzyl)phthalazin-1(2H)-one]: the IC50 (read-out: PARP7 IC50) was in the range of 100 to 500 nM.

On to `Cc1cnc(N(C)C2CN(C(=O)c3cc(Cc4n[nH]c(=O)c5ccc(OC6CCC6)cc45)ccc3F)C2)n1C` [Example 110, 6-Cyclobutoxy-4-(3-(3-((1,5-dimethyl-1H-imidazol-2-yl)(methyl)amino)azetidine-1-carbonyl)-4-fluorobenzyl)phthalazin-1(2H)-one], for which the IC50 (read-out: PARP7 IC50) lay within 100 to 500 nM. On the same count and under the same terms, next, `N#Cc1ccc(N2CCC3C2CCN3C(=O)c2cc(Cc3n[nH]c(=O)c4ccc(OC5CCC5)cc34)ccc2F)nc1` (stereo not shown) [Example 111, 6-(4-(5-((7-Cyclobutoxy-4-oxo-3,4-dihydrophthalazin-1-yl)methyl)-2-fluorobenzoyl)hexahydropyrrolo[3,2-b]pyrrol-1(2H)-yl)nicotinonitrile]: 100 to 500 nM. On to `O=C(C1CC1)N1C[C@H]2CC[C@@H](C1)N2C(=O)c1cc(Cc2n[nH]c(=O)c3ccc(OC4CCC4)cc23)ccc1F` [Example 112, 6-Cyclobutoxy-4-(3-(3-(cyclopropanecarbonyl)-3,8-diazabicyclo[3.2.1]octane-8-carbonyl)-4-fluorobenzyl)phthalazin-1(2H)-one], for which the IC50 lay in the range of 100 to 500 nM. For the compound `O=C(NC1CN(C(=O)c2cc(Cc3n[nH]c(=O)c4ccc(OC5CCC5)cc34)ccc2F)C1)C1CC1` [Example 113, N-(1-(5-((7-Cyclobutoxy-4-oxo-3,4-dihydrophthalazin-1-yl)methyl)-2-fluorobenzoyl)azetidin-3-yl)cyclopropanecarboxamide], under “read-out: PARP7 IC50”, the IC50 lay in the range of 100 to 500 nM. For the compound `CN(C(=O)CCC(F)(F)F)C1CN(C(=O)c2cc(Cc3n[nH]c(=O)c4ccc(OC5CCC5)cc34)ccc2F)C1` [Example 114, N-(1-(5-((7-cyclobutoxy-4-oxo-3,4-dihydrophthalazin-1-yl)methyl)-2-fluorobenzoyl)azetidin-3-yl)-4,4,4-trifluoro-N-methylbutanamide], the IC50 (read-out: PARP7 IC50) fell in the range of 100 to 500 nM.

Take `N#Cc1ccc(N2CC3CN(C(=O)c4cc(Cc5n[nH]c(=O)c6ccc(OC7CCC7)cc56)ccc4F)CC3C2)nc1` (stereo not shown) [Example 115, 6-(5-(5-((7-Cyclobutoxy-4-oxo-3,4-dihydrophthalazin-1-yl)methyl)-2-fluorobenzoyl)hexahydropyrrolo[3,4-c]pyrrol-2(1H)-yl)nicotinonitrile]: the concentration for half-maximal inhibition (IC50) (read-out: PARP7 IC50) fell in the range of 100 to 500 nM. On the same count and under the same terms, under `CN(c1cncc(C#N)n1)C1CN(C(=O)c2cc(Cc3n[nH]c(=O)c4ccc(OC5CCC5)cc34)ccc2F)C1` [Example 116, 6-((1-(5-((7-Cyclobutoxy-4-oxo-3,4-dihydrophthalazin-1-yl)methyl)-2-fluorobenzoyl)azetidin-3-yl)(methyl)amino)pyrazine-2-carbonitrile] stands 100 to 500 nM. Still for that read-out and setting: under `CN(C(=O)C1CCN1)C1CN(C(=O)c2cc(Cc3n[nH]c(=O)c4ccc(OC5CCC5)cc34)ccc2F)C1` (stereo not shown) [Example 117, N-(1-(5-((7-cyclobutoxy-4-oxo-3,4-dihydrophthalazin-1-yl)methyl)-2-fluorobenzoyl)azetidin-3-yl)-N-methylazetidine-2-carboxamide] stands 500 to 2000 nM; under `CN(C(=O)CC#N)C1CN(C(=O)c2cc(Cc3n[nH]c(=O)c4ccc(OC5CCC5)cc34)ccc2F)C1` [Example 118, 2-Cyano-N-(1-(5-((7-cyclobutoxy-4-oxo-3,4-dihydrophthalazin-1-yl)methyl)-2-fluorobenzoyl)azetidin-3-yl)-N-methylacetamide], 500 to 2000 nM; under `O=C(c1cc(Cc2n[nH]c(=O)c3ccc(OC4CCC4)cc23)ccc1F)N1CC2CN(C(=O)C3CC3)CC2C1` (stereo not shown) [Example 119, 6-Cyclobutoxy-4-(3-(5-(cyclopropanecarbonyl)octahydropyrrolo[3,4-c]pyrrole-2-carbonyl)-4-fluorobenzyl)phthalazin-1(2H)-one], 500 to 2000 nM. For `CN(c1nccc(C(F)(F)F)n1)C1CN(C(=O)c2cc(Cc3n[nH]c(=O)c4ccc(OC5CCC5)cc34)ccc2F)C1` [Example 120, 6-cyclobutoxy-4-(4-fluoro-3-(3-(methyl(4-(trifluoromethyl)pyrimidin-2-yl)amino)azetidine-1-carbonyl)benzyl) phthalazin-1(2H)-one], the IC50 (read-out: PARP7 IC50) was 500 to 2000 nM.

Regarding `CN(C(=O)C1CC1)C1CN(C(=O)c2cc(Cc3n[nH]c(=O)c4ccc(OC5CCC5)cc34)ccc2F)C1` [Example 121, N-(1-(5-((7-Cyclobutoxy-4-oxo-3,4-dihydrophthalazin-1-yl)methyl)-2-fluorobenzoyl)azetidin-3-yl)-N-methylcyclopropanecarboxamide], the IC50 (read-out: PARP7 IC50) was 500 to 2000 nM. On the same count and under the same terms, next, `CN(C(=O)C1CCO1)C1CN(C(=O)c2cc(Cc3n[nH]c(=O)c4ccc(OC5CCC5)cc34)ccc2F)C1` (stereo not shown) [Example 122, N-(1-(5-((7-cyclobutoxy-4-oxo-3,4-dihydrophthalazin-1-yl)methyl)-2-fluorobenzoyl)azetidin-3-yl)-N-methyloxetane-2-carboxamide]: 500 to 2000 nM; `CNC(=O)c1ccnc(N(C)C2CN(C(=O)c3cc(Cc4n[nH]c(=O)c5ccc(OC6CCC6)cc45)ccc3F)C2)c1` [Example 123, 2-((1-(5-((7-cyclobutoxy-4-oxo-3,4-dihydrophthalazin-1-yl)methyl)-2-fluorobenzoyl)azetidin-3-yl)(methyl)amino)-N-methylisonicotinamide]: 500 to 2000 nM. On the same count and under the same terms, under `CN(c1cc(C#N)ccn1)C1CN(C(=O)c2cc(Cc3n[nH]c(=O)c4ccc(OC5COC5)cc34)ccc2F)C1` [Example 124, 2-((1-(2-fluoro-5-((7-(oxetan-3-yloxy)-4-oxo-3,4-dihydrophthalazin-1-yl)methyl)benzoyl)azetidin-3-yl)(methyl)amino)isonicotinonitrile] stands over 2000 nM; under `N#Cc1cncc(N2CCN(C(=O)c3cc(Cc4n[nH]c(=O)c5ccc(OC6CCC6)cc45)ccc3F)CC2)c1` [Example 141, 5-(4-(5-((7-cyclobutoxy-4-oxo-3,4-dihydrophthalazin-1-yl)methyl)-2-fluorobenzoyl)piperazin-1-yl)nicotinonitrile], 50 to 100 nM; under `N#Cc1ccc(N2CC3CCC2CN3C(=O)c2cc(Cc3n[nH]c(=O)c4ccc(OC5CCC5)cc34)ccc2F)nc1` (stereo not shown) [Example 143, 6-(5-(5-((7-cyclobutoxy-4-oxo-3,4-dihydrophthalazin-1-yl)methyl)-2-fluorobenzoyl)-2,5-diazabicyclo[2.2.2]octan-2-yl)nicotinonitrile], 50 to 100 nM. As to `O=C(c1cc(Cc2n[nH]c(=O)c3ccc(OC4CCC4)cc23)ccc1F)N1CC2CCC1CN2c1ncc(C(F)(F)F)cn1` (stereo not shown) [Example 144, 6-cyclobutoxy-4-(4-fluoro-3-(5-(5-(trifluoromethyl)pyrimidin-2-yl)-2,5-diazabicyclo[2.2.2]octane-2-carbonyl)benzyl)phthalazin-1(2H)-one], the IC50 (read-out: PARP7 IC50) was under 50 nM. On the same count and under the same terms, under `O=C(c1cc(Cc2n[nH]c(=O)c3ccc(OC4CCC4)cc23)ccc1F)N1CC2CN(c3ncc(C(F)(F)F)cn3)CC2C1` (stereo not shown) [Example 147, 6-cyclobutoxy-4-(4-fluoro-3-(5-(5-(trifluoromethyl)pyrimidin-2-yl)octahydropyrrolo[3,4-c]pyrrole-2-carbonyl)benzyl)phthalazin-1(2H)-one] stands over 2000 nM. As to `CC(F)(F)c1cnc(N2CCN(C(=O)c3cc(Cc4n[nH]c(=O)c5ccc(OC6CCC6)cc45)ccc3F)CC2)nc1` [Example 161, 6-cyclobutoxy-4-(3-(4-(5-(1,1-difluoroethyl)pyrimidin-2-yl)piperazine-1-carbonyl)-4-fluorobenzyl)phthalazin-1(2H)-one], the concentration for half-maximal inhibition (IC50) (read-out: PARP7 IC50) is under 50 nM. Still for that read-out and setting: next, `O=C(c1cc(Cc2n[nH]c(=O)c3ccc(OC4CCC4)cc23)ccc1F)N1CCn2c(nnc2C(F)F)C1` [Example 163, 6-Cyclobutoxy-4-(3-(3-(difluoromethyl)-5,6,7,8-tetrahydro-[1,2,4]triazolo[4,3-a]pyrazine-7-carbonyl)-4-fluorobenzyl)phthalazin-1(2H)-one]: under 50 nM. On the same count and under the same terms, next, `O=C(c1cc(Cc2n[nH]c(=O)c3ccc(OC4CCC4)cc23)ccc1F)N1CCn2c(CF)nnc2C1` [Example 164, 6-Cyclobutoxy-4-(4-fluoro-3-(3-(fluoromethyl)-5,6,7,8-tetrahydro-[1,2,4]triazolo[4,3-a]pyrazine-7-carbonyl)benzyl)phthalazin-1(2H)-one]: under 50 nM.
